Measurements from patent publication US20210032598A1, “ACTIVATION-INDUCED TISSUE-EFFECTOR CELLS SUITABLE FOR CELL THERAPY AND EXTRACELLUAR VESICLES DERIVED THEREFROM” (Capricor, Inc., priority 2018, published 2021).

Tests used:
CD90 expression in CDCs = assay: Flow cytometry of CD90 expression in CDCs; format: cell-based, human
Protocol: Referring to FIG. 2, CDCs from two donors (Donor1 and Donor12) were prepared as described herein. The attached CDCs were treated with 30 μM CHIR (Selleckchem, Cat. #S1263), a GSK3β inhibitor, or with no treatment for 72 hours. The cells were then collected, washed with 1% bovine serum albumin (BSA) in 1× phosphated-buffered saline (PBS), and stained with FITC Mouse Anti-Human CD90 (BD Biosciences, Cat. #555595). Flow cytometry was then conducted in BD FACSCanton™ II machine to measure CD90 expression in cells.
(§1) Referring to FIG. 9B, CDCs from Donor 5 were treated with different concentrations of BIO (Sigma-Aldaich, Cat #B1685), a GSK3β inhibitor, for 72 hours. The cells were then collected and lysed with 1× lysis buffer supplied Total β-catenin ELISA (Affymetrix eBioscience InstantOne™ ELISA, Cat. #85-86141-11). Total β-catenin ELISA was performed as per manufacturer's instructions, except that 0.01 mg/mL final protein concentration was used in the assay.
Flow cytometry. Cells were harvested and counted (2×10^5 cells per condition). Cells were washed with 1% bovine serum albumin (BSA) in 1× Phosphated-buffered saline (PBS), and stained with the appropriate antibody (BD Pharmingen) for 1 hr at 4° C. The cells were then washed again and resuspended in 1% BSA in 1×PBS. BD Cytofix/Cytoperm™ kit was used for cell permeabilization before staining, such as LRP5/6 staining. […]

β-catenin levels in CDCs = assay: Total β-catenin ELISA in CDCs; format: cell-based, human
Protocol: as §1
Referring to FIG. 10, the effect of BIO (as measured by sustained β-catenin activation per ELISA) was measured in CDCs from Donor10. Zero hour is immediately drug wash-off time point following a 72 hour of 5 μM BIO treatment period.
(§2) Cell lysate and protein assay. 4×10^5 cells were collected and pelleted at 1,000 rpm for 5 min at 4° C. Cell pellets were thoroughly mixed with 1× lysis buffer (Affymetrix eBioscience InstantOne ELISA kit) by vortexing and rotating for 10 min at room temperature. Protein lysate was isolated from the cell lysate mixture after centrifugation at 14,000 rpm for 15 min at 4° C. Protein concentration was determined by DC™ Protein Assay kit (Bio-Rad).
(§3) ELISA. Protein collection and protein concentration determination were as described above. Total β-catenin ELISA was performed according the protocol described with final sample concentration of 0.01 mg/ml and positive control of 0.1 mg/ml (ThermoFisher eBioscience InstantOne™ ELISA).

[1] = system: mice with acute myocardial infarction; assay: Mouse model of acute myocardial infarction, change in left ventricular ejection fraction (echocardiography); format: in vivo, mouse (SCID beige); settings: 0.1 mg drug injected to heart; measured three weeks after surgery
Protocol: Briefly, 8-week old male severe combined immunodeficient (SCID) beige mice were anesthetized with isoflurane. Following surgical preparation, a 2 cm vertical incision was performed in the midclavicular line for a lateral thoracotomy. The left anterior descending was ligated using 7-0 silk. Animals then received intramyocardial injections of injected at two peri-infarct sites with 10^5 cells (or phosphate buffered saline as a vehicle) in a total of 20 μl (10 μl/site). Echocardiography measurements were taken (to measure change left ventricular ejection fraction) at day 1 post and week 3 post infarction.
Acute myocardial infarction was applied to the three-month-old male severe combined immunodeficient (SCID)—beige mice as previously described. 1×10^5 desired cells or 20 μl of 14 mM drug (BIO or JW67) or exosomes were injected to the SCID heart for rescuing.
Echocardiography. Echocardiography study was performed in the SCID beige in 24 hr (baseline) and 3 weeks after surgery using Vevo 3100 or 770 Imaging System (Visual Sonics) as described^8. The average of the left ventricular ejection fraction was analyzed from multiple left ventricular end-diastolic and left ventricular end-systolic measurements.

[2] = system: β-catenin levels in immortalized CDCs; assay: Total β-catenin ELISA in immortalized CDCs; format: cell-based, human; settings: SV40 T+t immortalized CDCs from Donor2; 5 μM BIO for 72 hours vs 0 μM
Protocol: as §2, §3

[3] = system: β-catenin levels in explant-derived cells (EDCs); assay: β-catenin ELISA in explant-derived cells (EDCs); format: cell-based, human; settings: EDCs from Donor1 and Donor12; BIO for 72 hours compared with sphere formation
[4] = system: β-catenin levels in kidney cortex cells; assay: β-catenin levels in kidney cortex cells; format: cell-based; settings: FIG. 18B
[5] = system: CD90 expression in immortalized CDCs; assay: Flow cytometry of CD90 expression in immortalized CDCs; format: cell-based, human; settings: Wnt3a for 72 hours, vs vehicle
Protocol: Referring to FIG. 3-5, CDCs from immortalized Donor2 were plated on either fibronectin (FN; VWR, Cat. #356009)-coated or CellBIND® (CB)-coated flasks. Attached cells were treated with Wnt3a or with PBS vehicle (ddH2O) for 72 hours. The cells were then analyzed using flow cytometry for CD90 expression with the same protocol as described herein.
Flow cytometry. Cells were harvested and counted (2×10^5 cells per condition). Cells were washed with 1% bovine serum albumin (BSA) in 1× Phosphated-buffered saline (PBS), and stained with the appropriate antibody (BD Pharmingen) for 1 hr at 4° C. The cells were then washed again and resuspended in 1% BSA in 1×PBS. BD Cytofix/Cytoperm™ kit was used for cell permeabilization before staining, such as LRP5/6 staining. The flow cytometry was performed in BD FACSCanto™ II machine.

O=C1Nc2cc(Br)ccc2/C1=C1/Nc2ccccc2/C1=N\O [BIO, 6-bromoindirubin-3′-oxime]
CD90 levels (CD90 expression in CDCs; CDCs from Donor5, increasing BIO concentrations): decreasing CD90 levels with increasing BIO concentrations | levels of β-catenin (β-catenin levels in CDCs; CDCs from Donor5, different concentrations of BIO for 72 hours): increased with increasing BIO concentration | time of peak β-catenin activation after drug washout (β-catenin levels in CDCs; CDCs from Donor10, after 72 hour 5 μM BIO treatment): 24 h | duration of effect of BIO treatment after washout (β-catenin levels in CDCs; FIG. 10, β-catenin activation per ELISA): at least 24 hours | β-catenin restoration (β-catenin levels in CDCs; non-potent CDCs from Donor5, 10 μM BIO for 72 hours vs 0 μM): successful β-catenin restoration | β-catenin restoration (β-catenin levels in CDCs; non-potent CDCs from Donor6-2, 5 μM BIO for 72 hours vs control vehicle): successful β-catenin restoration | cardiac recovery (cardiac ejection fraction change) [1]: improves cardiac recovery | β-catenin restoration [2]: successful β-catenin restoration | β-catenin expression [3]: equal or better enhanced β-catenin expression | β-catenin levels [4]: further increases β-catenin levels

Cc1cnc(-c2cnc(NCCNc3ccc(C#N)cn3)nc2-c2ccc(Cl)cc2Cl)[nH]1 [CHIR, 6-[[2-[[4-(2,4-Dichlorophenyl)-5-(5-methyl-1H-imidazol-2-yl)-2-pyrimidinyl]amino]ethyl]amino]-3-pyridinecarbonitrile]
CD90 levels (CD90 expression in CDCs; 30 μM CHIR for 72 hours, CDCs from Donor1 and Donor12, vs no treatment): decreased the CD90 levels

O=C1Nc2ccccc2C12OCC1(CO2)COC2(OC1)C(=O)Nc1ccccc12 (centres unmarked) [JW67, Trispiro[3H-indole-3,2′-[1,3]dioxane-5′5″-[1,3]dioxane-2″,3′″-[3H]indole]-2,2′″(1H,1′″H)-dione(9Cl)]
cardiac recovery (cardiac ejection fraction change) [1]: improves cardiac recovery

B1: Wnt3a: activator of the Wnt signaling pathway (protein, UniProt P56704 19-352, looked up)
Protein Wnt-3a: SYPIWWSLAVGPQYSSLGSQPILCASIPGLVPKQLRFCRNYVEIMPSVAEGIKIGIQECQHQFRGRRWNCTTVHDSLAIFGPVLDKATRESAFVHAIASAGVAFAVTRSCAEGTAAICGCSSRHQGSPGKGWKWGGCSEDIEFGGMVSREFADARENRPDARSAMNRHNNEAGRQAIASHMHLKCKCHGLSGSCEVKTCWWSQPDFRAIGDFLKDKYDSASEMVVEKHRESRGWVETLRPRYTYFKVPTERDLVYYEASPNFCEPNPETGSFGTRDRTCNVSSHGIDGCDLLCCGRGHNARAERRREKCRCVFHWCCYVSCQECTRVYDVHTCK
CD90 level ([5]; immortalized Donor2 CDCs on CellBIND (CB)-coated flasks): no such effect is observed | CD90 level ([5]; immortalized Donor2 CDCs on fibronectin (FN)-coated flasks): decreased the CD90 level
